Test results reported in patent US5747065A, “Monoglyceride/lactate ester permeation enhancer for oxybutynin” (priority 1996, dated 1998).
Like-named read-outs stand apart in the source and are kept apart here. Blank lines part the entries; values can stand above or below the molecule they belong to.

Tests used:
[1] = compared with racemate; devices/gels of Table 4
Protocol: The drug/permeation enhancer reservoir was prepared by mixing, depending on the formulation, either ethylene vinyl acetate copolymer having a vinyl acetate content of 40 percent ("EVA 40", U.S.I. Chemicals, Illinois) or mineral oil and petrolatum in an internal mixer (Bra Bender type mixer) until the EVA 40 pellets fused. Oxybutynin, glycerol monolaurate and lauryl lactate were then added.
When EVA 40 was used the mixture was blended, cooled and calendered to a 5 mil thick film. This film was then laminated to an acrylic contact adhesive (MSP041991P, 3M) on one side and Medpar® backing (3M) on the opposite side. The laminate was then cut into 2.54 cm^2 circles using a stainless steel punch. Circular pieces of human-epidermis were mounted on horizontal permeation cells with the stratum corneum facing the donor compartment of the cell. The release liner of the system was then removed and the system was centered over the stratum corneum side of the epidermis. A known volume of the receptor solution (0.05M sodium phosphate buffer at pH 6) that had been equilibrated at 35° C. was placed in the receptor compartment. Air bubbles were removed; the cell was capped and placed in a water bath-shaker at 35° C.
When the mineral oil/petrolatum was used, the mixture, containing the drug and permeation enhancers, was blended/mixed and then poured into the donor side of a two-side diffusion cell. […]

[2] = Solubility of glycerol monolaurate in lauryl lactate / EVA 40; assay type: physicochemical; details: for Wt % GML in solution (free GML): based on GML solubility of 350 mg/g
Text: The unexpected effects of the specific weight percentages of the components of the permeation enhancer mixture are believed to be due, in part, to the solubility of the monoglyceride in the lactic acid ester. It is known that monoglycerides by themselves are effective permeation enhancers. The enhancement occurs by the solubilization of the monoglyceride in the lipid layer of the skin. The solubilization of the monoglyceride in the lipid layer increases as a function of lactic acid ester concentration. […] Thus, the amount of GML dissolved, ie, free GML, is dictated by and proportional to the lauryl lactate loading in the polymer.

[3] = assay type: in vivo, human; details: transdermal, coadministered with the permeation enhancing mixture
Protocol: Representative skin permeation rates of oxybutynin through living human skin are in the range of about 5 μg/cm^2 ·hr to about 15 μg/cm^2 ·hr. Therapeutic blood levels can be achieved within approximately 6-10 hours after the initial application, and blood concentrations are maintained with subsequent system applications. The range of desired and achievable system permeation rates of oxybutynin, arriving through the skin from a limited area, is 1-20 mg over a period of 24 hours. The system application is easily adapted for shorter or longer duration treatments, but generally 72 hours is the duration for a single application.

[4] = 25 mg/mL aqueous oxybutynin, 20 μm polybutadiene film, 0.05M isotonic phosphate buffer, cited from earlier work

SMILES: CCN(CC)CC#CCOC(=O)[C@](O)(c1ccccc1)C1CCCCC1 [R-oxybutynin]
flux of R- or S-oxybutynin relative to the racemate [1]: approximately equivalent to that of the racemate

SMILES: CCN(CC)CC#CCOC(=O)[C@@](O)(c1ccccc1)C1CCCCC1 [S-oxybutynin]
flux of R- or S-oxybutynin relative to the racemate [1]: approximately equivalent to that of the racemate

Wt % GML in solution (free GML) ([2]; 12% lauryl lactate in EVA 40): 4.2% | Wt % GML in solution (free GML) ([2]; 20% lauryl lactate in EVA 40): 7.0% | Wt % GML in solution (free GML) ([2]; 27% lauryl lactate in EVA 40): 9.5% | Wt % GML in solution (free GML) ([2]; 30% lauryl lactate in EVA 40): 10.5% | solubility in EVA 40 matrix ([2]; in an EVA 40 matrix): practically insoluble | solubility of glycerol monolaurate in lauryl lactate ([2]; in lauryl lactate, solution stirred): 350 mg/g of solution
SMILES: CCCCCCCCCCCC(=O)OCC(O)CO (centres unmarked) [glycerol monolaurate]

SMILES: CCN(CC)CC#CCOC(=O)C(O)(c1ccccc1)C1CCCCC1 (centres unmarked) [oxybutynin]
time to therapeutic blood levels after the initial application [3]: 6 to 10 h | in vitro release rate ([4]; per area): ~10 μg/cm^2 ·hr | in vitro release rate ([4]; through 49 cm^2 area): approximately 12 mg over 24 hours
